Measurements reported in patent publication EP2108954A1, “A test system for detecting intracellular cyclic nucleotide level and methods and uses thereof” (Max-Planck-Gesellschaft zur Förderung der Wissenschaften …, priority 2008, dated 2009).

Target: T1, Or22a and Or83b (Drosophila melanogaster, UniProt P81909+Q9VNB5)
T1 construct: expressed in transfected cells; host or cells: HEK293
T1 sequence (P81909 1-397): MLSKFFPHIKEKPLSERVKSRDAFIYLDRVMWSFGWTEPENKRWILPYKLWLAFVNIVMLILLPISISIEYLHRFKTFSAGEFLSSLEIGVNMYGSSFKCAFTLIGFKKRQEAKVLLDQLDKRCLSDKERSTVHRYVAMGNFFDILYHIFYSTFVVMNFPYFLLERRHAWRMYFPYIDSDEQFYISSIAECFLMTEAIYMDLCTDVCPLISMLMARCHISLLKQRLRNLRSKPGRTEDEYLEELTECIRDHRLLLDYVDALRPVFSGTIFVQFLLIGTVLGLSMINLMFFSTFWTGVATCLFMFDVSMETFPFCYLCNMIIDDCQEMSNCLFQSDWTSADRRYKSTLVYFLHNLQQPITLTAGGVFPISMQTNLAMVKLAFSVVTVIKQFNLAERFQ
T1 sequence (Q9VNB5 1-486): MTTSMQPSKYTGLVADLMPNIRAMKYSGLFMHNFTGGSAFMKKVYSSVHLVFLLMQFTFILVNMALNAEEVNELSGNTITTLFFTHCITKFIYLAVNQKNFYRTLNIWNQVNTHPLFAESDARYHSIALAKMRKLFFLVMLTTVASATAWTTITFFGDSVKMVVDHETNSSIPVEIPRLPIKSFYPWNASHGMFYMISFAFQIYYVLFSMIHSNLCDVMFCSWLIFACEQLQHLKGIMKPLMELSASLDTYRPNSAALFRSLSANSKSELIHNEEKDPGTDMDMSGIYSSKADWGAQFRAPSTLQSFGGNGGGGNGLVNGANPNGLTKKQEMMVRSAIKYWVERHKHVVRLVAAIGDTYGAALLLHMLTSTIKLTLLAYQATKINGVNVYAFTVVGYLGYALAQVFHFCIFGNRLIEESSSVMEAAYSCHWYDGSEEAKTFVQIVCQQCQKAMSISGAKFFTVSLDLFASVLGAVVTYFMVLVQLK
Experiment: Calcium imaging (fura-2) in HEK293 cells coexpressing Or22a and Or83b
Type: cell-based
Conditions: dependent on Etb concentration and on extracellular Ca^2+
Description: Free intracellular Ca^2+ concentration ([Ca^2+]i) was determined by fura-2 fluorescence as described (Messutat et al., Cell Calcium 30, 199-211. (2001)). In brief, cells were loaded with fura-2 by incubation in bath solution containing 2 µM fura-2/acetomethylester for 20 min. Free intracellular Ca^2+ concentration ([Ca^2+]i) was determined with the fluorescence ratio method. Excitation of fura-2 at 340 and 380 nm was performed with a monochromator (Polychrome II, T.I.L.L. Photonics, Gräfelfing, Germany) coupled via an epifluorescence condenser into an Axioskop FS microscope (Carl Zeiss, Jena, Germany) with a water immersion objective (LUMPFL 40xW/IR/0.8; Olympus, Hamburg, Germany). […] [Ca^2+]i was calculated according to the equation [Ca^(2 +)]i = Keff (R-Rmin)/(Rmax-R). […] Keff, Rmin, and Rmax were determined using HEK293 cells permeabilized with 2 µM ionomycin and three solutions with different concentrations of free Ca^2+ (Ca^2+ free; 5 mM Ca^2+; 500 nM Ca^2+; the composition of the 500 nM solution was calculated with WEBMAXC v.2.20) (Patton et al., Cell Calcium 35, 427-31 (2004)). […]
Fluorescence images were acquired using a cooled CCD camera controlled by TILLVision 4.0 software (T.I.L.L. Photonics). […] Image pairs were obtained by excitation for 100 ms at 340 nm and 380 nm; background fluorescence was subtracted.

Structure (SMILES): CCCC(=O)OCC [Etb, ethyl butyrate]
- intracellular Ca^2+ concentration ([Ca^2+]i): increased intracellular Ca^2+ concentration
